Measurements taken from patent publication EP2057188B1 (priority 2006, dated 2008).
Where two headings read alike, the source gives them in different places. Ends that are not written are not given here.

Columns and labels:
[1] = format: in vivo, NIH/Swiss mice; details: 80 nmol/Kg; AUC240
Description: Gavage (1.5g/kg) was given at t=0. Sample was taken at t=30 min.

[2] = IVGTT duration of action assay, single SC injection; format: in vivo, rat; details: compared with 0601GIP3794 (794); @ -120 min
Description: In the typical IVGTT assays the test sample was administered by IV infusion. The IV infusion of sample was initiated at t = -30min and continued through t = 90. IV glucose was given at t = 0. To determine a duration of action using the IVGTT assay, the sample was injected SC as a single injection at one time point indicated (e.g., t = -240, -120, -60 or -30) prior to administration of glucose. IV glucose was given at t = 0.

[3] = format: in vivo, rats; parameters: AUC Change in Insulin Pre IVGTT / AUC Change in Insulin Post IVGTT: unit not given beside the values; details: for AUC Change in Insulin Post IVGTT / AUC Change in Insulin Pre IVGTT: rat, in vivo
[4] = cited from earlier work; for inhibition of gastric emptying: at doses of 100µg; for EC(50): inhibition of gastric emptying, subcutaneous
[5] = 100 pmol/kg/min infusion dose in rats

Molecule	Basal Glucose Lowering at 80 nmol/Kg [1]	Duration In The Rat IVGTT Assay [2]	inhibition of gastric emptying [4]	other results
CC[C@H](C)[C@H](NC(=O)[C@H](CO)NC(=O)[C@H](Cc1ccc(O)cc1)NC(=O)[C@H](CC(=O)O)NC(=O)[C@H](CO)NC(=O)[C@@H](NC(=O)[C@H](Cc1ccccc1)NC(=O)[C@@H](NC(=O)CNC(=O)[C@H](CCC(=O)O)NC(=O)[C@@H](C)NC(=O)[C@@H](N)Cc1ccc(O)cc1)[C@@H](C)O)[C@@H](C)CC)C(=O)N[C@@H](C)C(=O)N[C@@H](CCSC)C(=O)N[C@@H](CC(=O)O)C(=O)N[C@@H](CCCCN)C(=O)N[C@H](C(=O)N[C@@H](Cc1c[nH]cn1)C(=O)N[C@@H](CCC(N)=O)C(=O)N[C@@H](CCC(N)=O)C(=O)N[C@@H](CC(=O)O)C(=O)N[C@@H](Cc1ccccc1)C(=O)N[C@H](C(=O)N[C@@H](CC(N)=O)C(=O)N[C@@H](Cc1c[nH]c2ccccc12)C(=O)N[C@@H](CC(C)C)C(=O)N[C@@H](CC(C)C)C(=O)N[C@@H](C)C(=O)N[C@@H](CCC(N)=O)C(=O)N[C@@H](CCCCN)C(=O)N1CCC[C@H]1C(=O)N[C@@H](CO)C(=O)N1CCC[C@H]1C(=O)N[C@@H](CCCCN)C(=O)N[C@@H](CCCCN)C(=O)N[C@H](C(=O)N[C@@H](CCCNC(=N)N)C(=O)N[C@@H](Cc1ccc(O)cc1)C(=O)N[C@@H](CO)C(N)=O)[C@@H](C)CC)C(C)C)[C@@H](C)CC [0601 GIP48 23]	-23%, AUC2240	<794@-120 min		
[dAla2]GIP-(1-30)-[Octylglycine 34] Exendin-4 (31-39) [Compound 0601GIP4252]	-7%, AUC240			AUC Change in Insulin Post IVGTT [3]: 1218.1+ -12.7; AUC Change in Insulin Pre IVGTT [3]: 11.9+-11.7
CC[C@H](C)[C@H](NC(=O)[C@H](CO)NC(=O)[C@H](Cc1ccc(O)cc1)NC(=O)[C@H](CC(=O)O)NC(=O)[C@H](CO)NC(=O)[C@@H](NC(=O)[C@H](Cc1ccccc1)NC(=O)[C@@H](NC(=O)CNC(=O)[C@H](CCC(=O)O)NC(=O)[C@@H](C)NC(=O)[C@@H](N)Cc1ccc(O)cc1)[C@@H](C)O)[C@@H](C)CC)C(=O)N[C@@H](C)C(=O)N[C@@H](CCSC)C(=O)N[C@@H](CC(=O)O)C(=O)N[C@@H](CCCCN)C(=O)N[C@H](C(=O)N[C@@H](Cc1c[nH]cn1)C(=O)N[C@@H](CCC(N)=O)C(=O)N[C@@H](CCC(N)=O)C(=O)N[C@@H](CC(=O)O)C(=O)N[C@@H](Cc1ccccc1)C(=O)N[C@H](C(=O)N[C@@H](CC(N)=O)C(=O)N[C@@H](Cc1c[nH]c2ccccc12)C(=O)N[C@@H](CC(C)C)C(=O)N[C@@H](CC(C)C)C(=O)N[C@@H](C)C(=O)N[C@@H](CCC(N)=O)C(=O)N[C@@H](CCCCN)C(=O)N1CCC[C@H]1C(=O)N[C@@H](CCCCN)C(=O)N[C@@H](CO)C(=O)N[C@@H](C)C(=O)N[C@@H](CCCNC(=N)N)C(=O)N1CCC[C@H]1C(=O)N[C@@H](CO)C(N)=O)C(C)C)[C@@H](C)CC [0601 GIP48 21]	-5%, AUC240	<794@-120 min		
CC[C@H](C)[C@H](NC(=O)[C@H](CO)NC(=O)[C@H](Cc1ccc(O)cc1)NC(=O)[C@H](CC(=O)O)NC(=O)[C@H](CO)NC(=O)[C@@H](NC(=O)[C@H](Cc1ccccc1)NC(=O)[C@@H](NC(=O)CNC(=O)[C@H](CCC(=O)O)NC(=O)[C@@H](C)NC(=O)[C@@H](N)Cc1ccc(O)cc1)[C@@H](C)O)[C@@H](C)CC)C(=O)N[C@@H](C)C(=O)N[C@@H](CCSC)C(=O)N[C@@H](CC(=O)O)C(=O)N[C@@H](CCCCN)C(=O)N[C@H](C(=O)N[C@@H](Cc1c[nH]cn1)C(=O)N[C@@H](CCC(N)=O)C(=O)N[C@@H](CCC(N)=O)C(=O)N[C@@H](CC(=O)O)C(=O)N[C@@H](Cc1ccccc1)C(=O)N[C@H](C(=O)N[C@@H](CC(N)=O)C(=O)N[C@@H](Cc1c[nH]c2ccccc12)C(=O)N[C@@H](CC(C)C)C(=O)N[C@@H](CC(C)C)C(=O)N[C@@H](C)C(=O)N[C@@H](CCC(N)=O)C(=O)N[C@@H](CCCCN)C(=O)N1CCC[C@H]1C(=O)N[C@@H](CCCCN)C(=O)N[C@@H](CCCCN)C(=O)N[C@@H](CC(C)C)C(=O)N[C@@H](CCCCN)C(=O)N1CCC[C@H]1C(=O)N[C@@H](CO)C(N)=O)C(C)C)[C@@H](C)CC [0601 GIP48 22]	-11%, AUC240	<794@-120 min		
CC[C@H](C)[C@H](NC(=O)[C@H](CCCCN)NC(=O)[C@H](CC(=O)O)NC(=O)[C@H](CC(C)C)NC(=O)[C@H](C)NC(=O)[C@@H](NC(=O)[C@H](CO)NC(=O)[C@H](Cc1ccc(O)cc1)NC(=O)[C@H](CC(=O)O)NC(=O)[C@H](CO)NC(=O)[C@@H](NC(=O)[C@H](Cc1ccccc1)NC(=O)[C@@H](NC(=O)CNC(=O)[C@H](CCC(=O)O)NC(=O)[C@@H](C)NC(=O)[C@H](Cc1ccc(O)cc1)NC(=O)[C@@H](N)CC(C)C)[C@@H](C)O)[C@@H](C)CC)[C@@H](C)CC)C(=O)N[C@@H](C)C(=O)N[C@@H](CCC(N)=O)C(=O)N[C@@H](CCC(N)=O)C(=O)N[C@@H](CCC(=O)O)C(=O)N[C@@H](Cc1ccccc1)C(=O)N[C@H](C(=O)N[C@@H](CC(N)=O)C(=O)N[C@@H](Cc1c[nH]c2ccccc12)C(=O)N[C@@H](CC(C)C)C(=O)N[C@@H](CC(C)C)C(=O)N[C@@H](C)C(=O)N[C@@H](CCC(N)=O)C(=O)N[C@@H](CCCCN)C(=O)N1CCC[C@H]1C(=O)N[C@@H](CCCCN)C(=O)N[C@@H](CCCCN)C(=O)N[C@H](C(=O)N[C@@H](CCCNC(=N)N)C(=O)N[C@@H](Cc1ccc(O)cc1)C(=O)N[C@@H](CO)C(N)=O)[C@@H](C)CC)C(C)C [0601 GIP48 02]	-15%, AUC240	< 794 @ -120 min		
octylglycine-GIP(1-30)-Exendin-4-(31-39) [Compound 0601GIP4178]	-13%, AUC240			insulin levels prior to the glucose challenge [3, 5]: significant rise in insulin levels; insulinotropic response to an intravenous glucose challenge [3, 5]: diminished insulinotropic response; AUC Change in Insulin Post IVGTT [3]: 106.6+-23.8; AUC Change in Insulin Pre IVGTT [3]: 18.5+-6.7
adrenomedullin: peptide compared for inhibition of gastric emptying in conscious rats (YRQSMNNFQGLRSFGCRFGTCTVQKLAHQIYQFTDKDKDNVAPRSKISPQGY; ends and bridges not checked; cysteine pairing not given here; UniProt P35318 95-146, looked up)			weakly active or inactive	
CC[C@H](C)[C@H](NC(=O)[C@H](CO)NC(=O)[C@H](Cc1ccc(O)cc1)NC(=O)[C@H](CC(=O)O)NC(=O)[C@H](CO)NC(=O)[C@@H](NC(=O)[C@H](Cc1ccccc1)NC(=O)[C@@H](NC(=O)CNC(=O)[C@H](CCC(=O)O)NC(=O)[C@@H](C)NC(=O)[C@@H](N)Cc1ccc(O)cc1)[C@@H](C)O)[C@@H](C)CC)C(=O)N[C@@H](C)C(=O)N[C@@H](CCSC)C(=O)N[C@@H](CC(=O)O)C(=O)N[C@@H](CCCCN)C(=O)N[C@H](C(=O)N[C@@H](Cc1c[nH]cn1)C(=O)N[C@@H](CCC(N)=O)C(=O)N[C@@H](CCC(N)=O)C(=O)N[C@@H](CC(=O)O)C(=O)N[C@@H](Cc1ccccc1)C(=O)N[C@H](C(=O)N[C@@H](CC(N)=O)C(=O)N[C@@H](Cc1c[nH]c2ccccc12)C(=O)N[C@@H](CC(C)C)C(=O)N[C@@H](CC(C)C)C(=O)N[C@@H](C)C(=O)N[C@@H](CCC(N)=O)C(=O)N[C@@H](CCCCN)C(=O)N1CCC[C@H]1C(=O)N[C@@H](CCCCN)C(=O)N[C@@H](CCC(N)=O)C(=O)N[C@H](C(=O)N[C@@H](CCCNC(=N)N)C(=O)N[C@@H](Cc1ccc(O)cc1)C(=O)N[C@@H](CO)C(N)=O)[C@@H](C)CC)C(C)C)[C@@H](C)CC [0601 GIP48 54]		< 794@ -120 min		
KCNTATCATQRLANFLVHSSNNFGAILSSTNVGSNTY [Human amylin]				EC(50) ([4]; conscious rats ~200g): 0.15 µg; EC(50) ([4]; conscious rats): 0.19 nmol/kg
vasoactive intestinal peptide: peptide compared for inhibition of gastric emptying in conscious rats (HSDAVFTDNYTRLRKQMAVKKYLNSILN; ends and bridges not checked; UniProt P01282 125-152, looked up)			weakly active or inactive	
neuropeptide Y: peptide compared for inhibition of gastric emptying in conscious rats			weakly active or inactive	
Gastrin releasing peptide: peptide compared for inhibition of gastric emptying in conscious rats (VPLPAGGGTVLTKMYPRGNHWAVGHLM; ends and bridges not checked; UniProt P07492 24-50, looked up)				EC(50) ([4]; conscious rats ~200g): 28.5 µg; EC(50) ([4]; conscious rats): 49.9 nmol/kg
Rat CGRP: peptide compared for inhibition of gastric emptying in conscious rats (SCNTATCVTHRLAGLLSRSGGVVKDNFVPTNVGSEAF; ends and bridges not checked; cysteine pairing not given here; UniProt P01256 83-119, looked up)				EC(50) ([4]; conscious rats ~200g): 1.62 µg; EC(50) ([4]; conscious rats): 2.13 nmol/kg
[dAla2, Leu14, beta-Ala31, beta-Ala32] GIP-(1-32)-Exendin-4 (31-39) [Compound 0601GIP4179]	-17%, AUC240			AUC Change in Insulin Post IVGTT [3]: 206.8+-30.1; AUC Change in Insulin Pre IVGTT [3]: 52.4+-9.6
pancreatic polypeptide: peptide compared for inhibition of gastric emptying in conscious rats (APLEPVYPGDNATPEQMAQYAADLRRYINMLTRPRY; ends and bridges not checked; UniProt P01298 30-65, looked up)			weakly active or inactive	
somatostatin: peptide compared for inhibition of gastric emptying in conscious rats (AGCKNFFWKTFTSC; ends and bridges not checked; cysteine pairing not given here; UniProt P61278 103-116, looked up)			weakly active or inactive	
